Reference: ChEMBL document CHEMBL2034957, “Synthesis and antitumor evaluation of novel benzo[d]pyrrolo[2,1-b]thiazole derivatives” (Eur J Med Chem, 2012)
Active and inactive are the calls of the source. No cut-off for these calls is given here.

Legend:
[1] = Cytotoxicity against human H1299 cells after 72 hrs by alamar blue assay; format: functional, cell-based; conditions: NCI-H1299, 72 h
CCRF-CEM [2] = experiment: Cytotoxicity against human CCRF-CEM cells after 72 hrs by XTT assay; format: functional, cell-based
CCRF-CEM [3] = experiment: Cytotoxicity against human taxol-resistant CCRF-CEM cells after 72 hrs by XTT assay; format: functional, cell-based
HCT-116 = experiment: Cytotoxicity against human HCT116 cells after 72 hrs by SRB assay; format: functional, cell-based; conditions: HCT-116, 72 h
CCRF-CEM [4] = experiment: Ratio of IC50 for human taxol-resistant CCRF-CEM cells to IC50 for human CCRF-CEM cells; format: functional
MX1 [5] = experiment: Cytotoxicity against human MX1 cells after 72 hrs by SRB assay; format: functional, cell-based; conditions: MX1, 72 h
CCRF-CEM [6] = experiment: Ratio of IC50 for human vinblastine-resistant CCRF-CEM cells to IC50 for human CCRF-CEM cells; format: functional
CCRF-CEM [7] = experiment: Cytotoxicity against human vinblastine-resistant CCRF-CEM cells after 72 hrs by XTT assay; format: functional, cell-based
[8] = Cytotoxicity against human U87 cells after 72 hrs by alamar blue assay; format: functional, cell-based, U-87MG ATCC; conditions: U-87 MG
PC-3 = experiment: Cytotoxicity against human PC3 cells after 72 hrs by alamar blue assay; format: functional, cell-based; conditions: PC-3, 72 h
[9] = Cytotoxicity against human OECM1 cells after 72 hrs by alamar blue assay; format: functional, cell-based; conditions: OECM1, 72 h
[10] = Cell cycle arrest in human H1299 cells assessed as accumulation of G1 phase cells at 25 uM at 48 hrs by propidium iodideee-based flow cytometry; format: functional; conditions: NCI-H1299
Nucleic Acid = experiment: Induction of Escherichia coli pEGFP-N1 DNA interstrand cross-linking at 1 to 20 uM after 2 hrs using ethidium bromide staining by alkaline agarose gel shift assay; format: nucleic-acid assay
[11] = Cell cycle arrest in human H1299 cells assessed as reduction in G1 phase cells at 25 uM at 24 hrs by propidium iodideee-based flow cytometry; format: functional; conditions: NCI-H1299
Mus musculus [12] = experiment: Toxicity in athymic nude mouse assessed as weight loss at 30 mg/kg, iv administered q2d for 4 days; format: organism-based; design: dose 30 mg/kg, route intravenous; conditions: in vivo, 96 h
[13] = Cell cycle arrest in human H1299 cells assessed as reduction in G1 phase cells after 24 to 48 hrs by propidium iodidee-based flow cytometry; format: functional; conditions: NCI-H1299
Mus musculus [14] = experiment: Toxicity in athymic nude mouse assessed as weight loss at 20 mg/kg, iv administered q2d for 3 days followed by 25 mg/kg, iv q2d for 4 days; format: organism-based; conditions: in vivo
MX1 [15] = experiment: Antitumor activity against human MX1 cells xenografted in athymic nude mouse assessed as tumor suppression at 30 mg/kg, iv administered q2d for 4 days; format: functional
[16] = Cell cycle arrest in human H1299 cells assessed as accumulation of sub-G1 phase cells after 24 to 48 hrs by propidium iodidee-based flow cytometry; format: functional; conditions: NCI-H1299
[17] = Cell cycle arrest in human H1299 cells assessed as accumulation of G2/M phase cells after 24 to 48 hrs by propidium iodidee-based flow cytometry; format: functional; conditions: NCI-H1299
Mus musculus [18] = experiment: Toxicity in athymic nude mouse assessed as weight loss at 10 mg/kg, iv administered q2d for 4 days; format: organism-based; design: dose 10 mg/kg, route intravenous; conditions: in vivo, 96 h
MX1 [19] = experiment: Antitumor activity against human MX1 cells xenografted in athymic nude mouse assessed as tumor suppression at 10 mg/kg, iv administered q2d for 4 days; format: functional

Row | SMILES | IC50 [1] | IC50 (CCRF-CEM [2]) | IC50 (CCRF-CEM [3]) | Ratio IC50 (CCRF-CEM [4]) | Ratio IC50 (CCRF-CEM [6]) | IC50 (CCRF-CEM [7]) | IC50 [8] | IC50 (PC-3) | IC50 [9] | other results
1 | Cc1c(COC(=O)NC(C)C)c(COC(=O)NC(C)C)c2sc3ccccc3n12 | 9.7 µM | 0.13 µM | 0.22 µM | 1.69 | 1.92 | 0.25 µM | – | – | – | IC50 (HCT-116): 0.97 µM; IC50 (MX1 [5]): 0.13 µM
2 | CC(=O)O[C@H]1C(=O)[C@@]2(C)[C@H]([C@H](OC(=O)c3ccccc3)[C@]3(O)C[C@H](OC(=O)[C@H](O)[C@@H](NC(=O)c4ccccc4)c4ccccc4)C(C)=C1C3(C)C)[C@]1(OC(C)=O)CO[C@@H]1C[C@@H]2O [PACLITAXEL] | – | – | – | 358 | 980 | – | – | – | – | –
3 | COc1ccc(-c2c(COC(=O)NC(C)C)c(COC(=O)NC(C)C)c3sc4ccccc4n23)cc1OC | – | 0.11 µM | – | – | – | – | – | – | – | –
4 | OCc1c(CO)c2sc3ccccc3n2c1-c1ccc(F)c(F)c1 | 21.4 µM | 0.19 µM | 0.19 µM | 1 | 1.47 | 0.28 µM | 17.4 µM | 15.2 µM | 8.48 µM | –
5 | OCc1c(CO)c2sc3ccccc3n2c1-c1ccc(Cl)cc1 | 12.4 µM | 2.61 µM | 5.22 µM | 2 | 1.56 | 4.09 µM | 20.7 µM | 20.4 µM | 14.6 µM | Activity [10]: Active; IC50 (HCT-116): 9.26 µM; IC50 (MX1 [5]): 10.4 µM; Activity (Nucleic Acid): Active; Activity [11]: Active
6 | CCNC(=O)OCc1c(COC(=O)NCC)c2sc3ccccc3n2c1-c1cc(OC)c(OC)c(OC)c1 | – | 0.32 µM | – | – | – | – | – | – | – | –
7 | OCc1c(CO)c2sc3ccccc3n2c1C1CC1 | 13.3 µM | 0.97 µM | 2.31 µM | 2.37 | 2.51 | 2.44 µM | 28.7 µM | 10.7 µM | 7.12 µM | –
8 | CCNC(=O)OCc1c(COC(=O)NCC)c2sc3ccccc3n2c1-c1ccc(OC)c(OC)c1 | – | 0.49 µM | – | – | – | – | – | – | – | –
9 | OCc1c(CO)c2sc3ccccc3n2c1-c1ccc(Cl)c(Cl)c1 | – | 1.04 µM | – | – | – | – | – | – | – | –
10 | CCNC(=O)OCc1c(COC(=O)NCC)c2sc3ccccc3n2c1-c1ccc(Cl)cc1 | 4.33 µM | 0.21 µM | 0.32 µM | 1.52 | 1.85 | 0.39 µM | 26 µM | 13.8 µM | 11.6 µM | Activity (Mus musculus [12]): 20%; Activity [13]: Dose-dependent effect; Activity (Mus musculus [14]): 20%; IC50 (HCT-116): 0.7 µM; Activity (MX1 [15]): >99%; IC50 (MX1 [5]): 0.91 µM; Activity [16]: Active; Activity (Nucleic Acid): Active; Activity [17]: Active; Activity (Mus musculus [18]): 20%
11 | CC(C)NC(=O)OCc1c(COC(=O)NC(C)C)c2sc3ccccc3n2c1-c1ccc(F)cc1 | 33 µM | 0.05 µM | 0.16 µM | 3.2 | 3.8 | 0.19 µM | 53.5 µM | 24.2 µM | 11.9 µM | Activity (Mus musculus [12]): 20%; Activity (Mus musculus [14]): 20%; IC50 (HCT-116): 0.35 µM; IC50 (MX1 [5]): 0.62 µM; Activity (Nucleic Acid): Active; Activity (Mus musculus [18]): 20%
12 | COc1ccc(-c2c(COC(=O)NC(C)C)c(COC(=O)NC(C)C)c3sc4ccccc4n23)cc1 | 8.19 µM | 0.14 µM | 0.17 µM | 1.17 | 1.47 | 0.25 µM | 60.9 µM | 17.5 µM | 7.23 µM | Activity (Nucleic Acid): Active
13 | CCNC(=O)OCc1c(COC(=O)NCC)c2sc3ccccc3n2c1C | – | 0.33 µM | 0.45 µM | 1.3 | 1.3 | 0.43 µM | – | – | – | –
14 | COc1cc(-c2c(COC(=O)NC(C)C)c(COC(=O)NC(C)C)c3sc4ccccc4n23)cc(OC)c1OC | – | 1.05 µM | – | – | – | – | – | – | – | –
15 | CCNC(=O)OCc1c(COC(=O)NCC)c2sc3ccccc3n2c1C1CC1 | 20.6 µM | 0.17 µM | 0.68 µM | 4.01 | 3.18 | 0.54 µM | 74.5 µM | 24.2 µM | 26.3 µM | –
16 | CCNC(=O)OCc1c(COC(=O)NCC)c2sc3ccccc3n2c1-c1ccc(F)c(F)c1 | 10.3 µM | 0.21 µM | 0.34 µM | 1.61 | 1.47 | 0.31 µM | 38.5 µM | 19.3 µM | 14.6 µM | IC50 (HCT-116): 1.1 µM; IC50 (MX1 [5]): 1.49 µM

Row | SMILES | IC50 [1] | IC50 (CCRF-CEM [2]) | IC50 (CCRF-CEM [3]) | Ratio IC50 (CCRF-CEM [4]) | Ratio IC50 (CCRF-CEM [6]) | IC50 (CCRF-CEM [7]) | IC50 [8] | IC50 (PC-3) | IC50 [9] | other results
17 | CC(C)NC(=O)OCc1c(COC(=O)NC(C)C)c2sc3ccccc3n2c1-c1ccc(F)c(Cl)c1 | – | 0.5 µM | – | – | – | – | – | – | – | –
18 | CCNC(=O)OCc1c(COC(=O)NCC)c2sc3ccccc3n2c1-c1ccc(OC)cc1 | 8.85 µM | 0.19 µM | 0.37 µM | 1.9 | 2.2 | 0.42 µM | 29.5 µM | 17.9 µM | 9.39 µM | Activity (Nucleic Acid): Active
19 | OCc1c(CO)c2sc3ccccc3n2c1-c1ccc(F)c(Cl)c1 | – | 3.09 µM | – | – | – | – | – | – | – | –
20 | OCc1c(CO)c2sc3ccccc3n2c1-c1ccc(F)cc1 | 9.27 µM | 1.06 µM | 2.56 µM | 2.41 | 3.5 | 3.72 µM | 15.5 µM | 13.8 µM | 6.03 µM | IC50 (HCT-116): 9.59 µM; IC50 (MX1 [5]): 2.77 µM; Activity (Nucleic Acid): Active
21 | CCNC(=O)OCc1c(COC(=O)NCC)c2sc3ccccc3n2c1-c1ccc(F)c(Cl)c1 | – | 0.38 µM | – | – | – | – | – | – | – | –
22 | CC(C)NC(=O)OCc1c(COC(=O)NC(C)C)c2sc3ccccc3n2c1C1CC1 | 20.4 µM | 0.1 µM | 0.73 µM | 7.3 | 9 | 0.9 µM | 45.5 µM | 13.4 µM | 9.67 µM | –
23 | CC[C@]1(O)C[C@@H]2CN(CCc3c([nH]c4ccccc34)[C@@](C(=O)OC)(c3cc4c(cc3OC)N(C)[C@H]3[C@@](O)(C(=O)OC)[C@H](OC(C)=O)[C@]5(CC)C=CCN6CC[C@]43[C@@H]65)C2)C1 [VINBLASTINE] | – | – | – | 106 | 680 | – | – | – | – | –
24 | COc1ccc(-c2c(CO)c(CO)c3sc4ccccc4n23)cc1 | 9.94 µM | 1.13 µM | 2.17 µM | 1.9 | 2.3 | 2.63 µM | 18.1 µM | 8.81 µM | 5 µM | Activity (Nucleic Acid): Active
25 | CC(C)NC(=O)OCc1c(COC(=O)NC(C)C)c2sc3ccccc3n2c1-c1ccc(Cl)c(Cl)c1 | – | 2.29 µM | – | – | – | – | – | – | – | –
26 | CCNC(=O)OCc1c(COC(=O)NCC)c2sc3ccccc3n2c1-c1ccc(F)cc1 | 13.6 µM | 0.07 µM | 0.38 µM | 5.42 | 6.42 | 0.45 µM | 29.2 µM | 23.7 µM | 11.5 µM | Activity (Mus musculus [12]): 20%; Activity (MX1 [19]): >99%; Activity (Mus musculus [14]): 20%; IC50 (HCT-116): 0.52 µM; IC50 (MX1 [5]): 0.48 µM; Activity (Nucleic Acid): Active; Activity (Mus musculus [18]): 20%
27 | CC(C)NC(=O)OCc1c(COC(=O)NC(C)C)c2sc3ccccc3n2c1-c1ccc(F)c(F)c1 | 30.8 µM | 0.33 µM | 0.19 µM | 0.57 | 0.9 | 0.3 µM | 74.9 µM | 29.6 µM | 15.1 µM | IC50 (HCT-116): 0.41 µM; IC50 (MX1 [5]): 1 µM
28 | Cc1c(CO)c(CO)c2sc3ccccc3n12 | – | 0.97 µM | 1.88 µM | 1.93 | 1.91 | 1.86 µM | – | – | – | IC50 (HCT-116): 4.44 µM; IC50 (MX1 [5]): 7.1 µM
29 | COc1ccc(-c2c(CO)c(CO)c3sc4ccccc4n23)cc1OC | – | 1.82 µM | – | – | – | – | – | – | – | –
30 | CCNC(=O)OCc1c(COC(=O)NCC)c2sc3ccccc3n2c1-c1ccc(Cl)c(Cl)c1 | – | 0.38 µM | – | – | – | – | – | – | – | –
31 | COc1cc(-c2c(CO)c(CO)c3sc4ccccc4n23)cc(OC)c1OC | – | 4.03 µM | – | – | – | – | – | – | – | –
